What all share (conditions): Compound concentration 10 µM
Experiment [1] concerns the target 5-hydroxytryptamine receptor 2A (Homo sapiens) (UniProt P28223).
Experiment [2] deals with Sigma intracellular receptor 2 (Homo sapiens) (UniProt Q5BJF2).
The target of experiment [3] is Translocator protein (Homo sapiens) (UniProt P30536).
Experiment [4] concerns the target T1, 5-hydroxytryptamine receptor 3A (Homo sapiens) (UniProt P46098).
T1 sequence (whole entry): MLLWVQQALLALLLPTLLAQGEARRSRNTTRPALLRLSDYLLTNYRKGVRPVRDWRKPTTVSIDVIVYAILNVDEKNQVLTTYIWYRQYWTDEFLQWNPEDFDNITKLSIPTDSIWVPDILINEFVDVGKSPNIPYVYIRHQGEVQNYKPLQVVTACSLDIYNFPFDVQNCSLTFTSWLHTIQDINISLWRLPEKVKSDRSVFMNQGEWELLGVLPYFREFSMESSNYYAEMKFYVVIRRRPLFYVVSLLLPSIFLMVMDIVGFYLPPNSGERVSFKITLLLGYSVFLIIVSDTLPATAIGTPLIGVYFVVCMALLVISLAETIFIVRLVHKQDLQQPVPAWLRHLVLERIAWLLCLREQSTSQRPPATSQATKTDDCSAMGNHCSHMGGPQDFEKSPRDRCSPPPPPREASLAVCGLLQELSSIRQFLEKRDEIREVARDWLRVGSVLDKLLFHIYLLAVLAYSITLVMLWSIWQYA

Experiment [5] has as its target Beta-3 adrenergic receptor (Homo sapiens) (UniProt P13945).
Experiment [6] deals with 5-hydroxytryptamine receptor 2B (Homo sapiens) (UniProt P41595).
Sequence of 5-hydroxytryptamine receptor 2B (Homo sapiens) (P41595 whole entry): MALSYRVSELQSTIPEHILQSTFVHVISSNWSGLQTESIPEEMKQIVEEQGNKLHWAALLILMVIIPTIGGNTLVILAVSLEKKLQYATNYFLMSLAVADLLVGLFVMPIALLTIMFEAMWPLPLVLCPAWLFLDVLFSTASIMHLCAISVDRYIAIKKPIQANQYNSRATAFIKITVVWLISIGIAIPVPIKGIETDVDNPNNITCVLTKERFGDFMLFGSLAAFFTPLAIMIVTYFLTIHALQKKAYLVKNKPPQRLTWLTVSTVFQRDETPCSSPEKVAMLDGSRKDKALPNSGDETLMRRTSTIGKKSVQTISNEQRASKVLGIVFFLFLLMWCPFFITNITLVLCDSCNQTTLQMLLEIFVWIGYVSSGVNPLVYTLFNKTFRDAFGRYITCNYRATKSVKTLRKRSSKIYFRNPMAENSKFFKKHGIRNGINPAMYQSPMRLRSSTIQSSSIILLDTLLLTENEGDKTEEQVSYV
The target in experiment [7] is 5-hydroxytryptamine receptor 6 (Homo sapiens) (UniProt P50406).
Sequence of 5-hydroxytryptamine receptor 6 (Homo sapiens) (P50406 whole entry): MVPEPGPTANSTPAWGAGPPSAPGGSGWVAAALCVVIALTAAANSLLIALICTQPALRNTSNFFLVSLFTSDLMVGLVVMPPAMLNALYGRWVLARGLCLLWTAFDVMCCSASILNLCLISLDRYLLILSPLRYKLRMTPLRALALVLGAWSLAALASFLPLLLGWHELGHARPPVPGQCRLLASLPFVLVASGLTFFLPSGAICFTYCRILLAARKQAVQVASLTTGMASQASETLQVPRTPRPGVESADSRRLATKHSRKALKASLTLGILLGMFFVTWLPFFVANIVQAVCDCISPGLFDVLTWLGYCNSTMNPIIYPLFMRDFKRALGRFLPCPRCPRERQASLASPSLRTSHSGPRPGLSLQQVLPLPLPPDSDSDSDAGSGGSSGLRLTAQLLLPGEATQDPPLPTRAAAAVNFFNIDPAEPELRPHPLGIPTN
Experiment [8] deals with T2, 5-hydroxytryptamine receptor 2C (Homo sapiens) (UniProt P28335).
T2 sequence (whole entry): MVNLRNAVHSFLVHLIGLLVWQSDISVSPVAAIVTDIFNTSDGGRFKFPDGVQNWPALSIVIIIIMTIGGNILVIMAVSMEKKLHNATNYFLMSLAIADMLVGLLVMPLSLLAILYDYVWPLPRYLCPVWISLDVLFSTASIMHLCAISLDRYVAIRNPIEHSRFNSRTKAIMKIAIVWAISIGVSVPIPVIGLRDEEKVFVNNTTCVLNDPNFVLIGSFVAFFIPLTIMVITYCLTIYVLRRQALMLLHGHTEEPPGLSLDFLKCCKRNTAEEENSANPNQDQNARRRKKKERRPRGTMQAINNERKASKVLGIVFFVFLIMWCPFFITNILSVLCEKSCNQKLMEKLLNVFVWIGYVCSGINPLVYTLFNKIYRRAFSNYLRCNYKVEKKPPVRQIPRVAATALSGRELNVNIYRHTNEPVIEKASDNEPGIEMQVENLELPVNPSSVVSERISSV

The target in experiment [9] is 5-hydroxytryptamine receptor 7 (Homo sapiens) (UniProt P34969).
Sequence of 5-hydroxytryptamine receptor 7 (Homo sapiens) (P34969 whole entry): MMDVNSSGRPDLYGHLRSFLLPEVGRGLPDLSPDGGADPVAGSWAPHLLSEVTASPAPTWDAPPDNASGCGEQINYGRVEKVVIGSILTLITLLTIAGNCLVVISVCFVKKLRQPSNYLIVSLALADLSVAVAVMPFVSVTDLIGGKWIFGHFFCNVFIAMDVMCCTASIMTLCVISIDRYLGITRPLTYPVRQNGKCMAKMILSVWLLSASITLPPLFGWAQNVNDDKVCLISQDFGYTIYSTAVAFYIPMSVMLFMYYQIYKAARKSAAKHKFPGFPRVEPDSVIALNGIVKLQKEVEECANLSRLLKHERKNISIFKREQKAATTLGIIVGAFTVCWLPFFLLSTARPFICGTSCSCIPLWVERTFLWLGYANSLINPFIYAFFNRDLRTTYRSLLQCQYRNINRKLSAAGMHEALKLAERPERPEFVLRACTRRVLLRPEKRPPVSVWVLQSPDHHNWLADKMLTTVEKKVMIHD
The target of experiment [10] is Histamine H4 receptor (Homo sapiens) (UniProt Q9H3N8).
In experiment [11] the target is Mu-type opioid receptor (Homo sapiens) (UniProt P35372).
Sequence of Mu-type opioid receptor (Homo sapiens) (P35372 whole entry): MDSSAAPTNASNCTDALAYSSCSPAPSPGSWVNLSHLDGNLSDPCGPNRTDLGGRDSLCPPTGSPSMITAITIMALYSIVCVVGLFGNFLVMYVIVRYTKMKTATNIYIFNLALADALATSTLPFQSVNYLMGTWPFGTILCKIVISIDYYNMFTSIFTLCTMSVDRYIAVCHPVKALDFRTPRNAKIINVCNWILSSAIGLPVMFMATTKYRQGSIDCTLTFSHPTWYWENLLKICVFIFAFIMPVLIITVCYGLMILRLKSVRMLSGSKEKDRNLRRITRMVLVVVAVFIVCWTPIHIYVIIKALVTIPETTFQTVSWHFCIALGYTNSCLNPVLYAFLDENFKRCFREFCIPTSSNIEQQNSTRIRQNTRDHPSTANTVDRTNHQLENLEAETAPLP
For experiment [12], the target named is T3, Muscarinic acetylcholine receptor M1 (Homo sapiens) (UniProt P11229).
T3 sequence (whole entry): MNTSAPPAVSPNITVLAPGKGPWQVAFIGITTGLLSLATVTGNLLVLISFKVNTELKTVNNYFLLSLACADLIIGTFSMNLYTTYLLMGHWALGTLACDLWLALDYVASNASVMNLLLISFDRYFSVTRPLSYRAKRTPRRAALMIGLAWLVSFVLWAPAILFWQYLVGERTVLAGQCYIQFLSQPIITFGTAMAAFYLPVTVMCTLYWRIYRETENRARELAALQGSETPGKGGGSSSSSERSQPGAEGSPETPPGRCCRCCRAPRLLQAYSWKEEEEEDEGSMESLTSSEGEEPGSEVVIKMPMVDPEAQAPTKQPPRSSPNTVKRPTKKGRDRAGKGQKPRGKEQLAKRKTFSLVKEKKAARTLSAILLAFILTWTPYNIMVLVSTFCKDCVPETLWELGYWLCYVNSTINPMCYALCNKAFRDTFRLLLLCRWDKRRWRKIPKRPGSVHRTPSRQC

The target in experiment [13] is Histamine H3 receptor (Homo sapiens) (UniProt Q9Y5N1).
Experiment [14] concerns the target Beta-2 adrenergic receptor (Homo sapiens) (UniProt P07550).
The target in experiment [15] is 5-hydroxytryptamine receptor 1E (Homo sapiens) (UniProt P28566).
Experiment [16] has as its target D(2) dopamine receptor (Homo sapiens) (UniProt P14416).
Experiment [17] concerns the target Sigma non-opioid intracellular receptor 1 (Homo sapiens) (UniProt Q99720).
Experiment [18] deals with D(1A) dopamine receptor (Homo sapiens) (UniProt P21728).
Sequence of D(1A) dopamine receptor (Homo sapiens) (P21728 whole entry): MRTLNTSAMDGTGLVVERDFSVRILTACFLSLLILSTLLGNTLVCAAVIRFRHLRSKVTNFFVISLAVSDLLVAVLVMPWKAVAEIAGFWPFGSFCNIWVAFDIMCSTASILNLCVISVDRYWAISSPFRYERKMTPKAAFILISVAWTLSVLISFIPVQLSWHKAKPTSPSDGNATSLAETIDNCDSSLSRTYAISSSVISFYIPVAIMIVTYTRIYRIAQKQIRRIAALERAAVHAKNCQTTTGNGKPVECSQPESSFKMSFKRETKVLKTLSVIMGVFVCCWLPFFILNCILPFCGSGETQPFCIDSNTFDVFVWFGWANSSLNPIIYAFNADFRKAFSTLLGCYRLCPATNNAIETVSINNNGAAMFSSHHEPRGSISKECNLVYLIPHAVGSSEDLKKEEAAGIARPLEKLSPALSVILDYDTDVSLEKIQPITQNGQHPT
Experiment [19] concerns the target D(1B) dopamine receptor (Homo sapiens) (UniProt P21918).
Experiment [20] concerns the target Sodium-dependent dopamine transporter (Homo sapiens) (UniProt Q01959).
Experiment [21] concerns the target T4, Muscarinic acetylcholine receptor M2 (Homo sapiens) (UniProt P08172).
T4 sequence (whole entry): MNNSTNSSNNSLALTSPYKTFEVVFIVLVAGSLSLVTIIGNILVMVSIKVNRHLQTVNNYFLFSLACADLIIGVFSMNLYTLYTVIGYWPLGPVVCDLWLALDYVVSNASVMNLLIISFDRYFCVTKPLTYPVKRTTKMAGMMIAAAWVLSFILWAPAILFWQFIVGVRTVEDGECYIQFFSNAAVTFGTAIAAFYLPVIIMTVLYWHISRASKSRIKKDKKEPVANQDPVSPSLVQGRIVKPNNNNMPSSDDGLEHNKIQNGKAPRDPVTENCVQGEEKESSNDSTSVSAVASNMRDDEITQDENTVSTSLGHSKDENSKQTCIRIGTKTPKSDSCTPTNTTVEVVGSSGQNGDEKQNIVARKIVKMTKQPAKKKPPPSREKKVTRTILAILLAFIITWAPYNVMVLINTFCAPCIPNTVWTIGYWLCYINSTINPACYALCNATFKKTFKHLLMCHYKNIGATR

Molecules are shown by their SMILES.

Sequence of D(1B) dopamine receptor (Homo sapiens) (P21918 whole entry): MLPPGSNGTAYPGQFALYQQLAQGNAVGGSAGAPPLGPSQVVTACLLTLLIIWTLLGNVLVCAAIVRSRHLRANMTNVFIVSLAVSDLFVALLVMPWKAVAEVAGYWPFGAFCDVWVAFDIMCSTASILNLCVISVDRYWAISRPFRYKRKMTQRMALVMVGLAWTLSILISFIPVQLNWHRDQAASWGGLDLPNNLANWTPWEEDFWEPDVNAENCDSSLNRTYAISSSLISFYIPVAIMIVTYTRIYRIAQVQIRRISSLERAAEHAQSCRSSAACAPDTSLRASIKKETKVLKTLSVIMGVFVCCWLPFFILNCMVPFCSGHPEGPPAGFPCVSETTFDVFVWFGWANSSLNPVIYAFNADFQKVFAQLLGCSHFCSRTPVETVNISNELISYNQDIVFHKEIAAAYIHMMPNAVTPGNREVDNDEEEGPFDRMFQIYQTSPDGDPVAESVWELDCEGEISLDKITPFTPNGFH
Sequence of Sigma non-opioid intracellular receptor 1 (Homo sapiens) (Q99720 whole entry): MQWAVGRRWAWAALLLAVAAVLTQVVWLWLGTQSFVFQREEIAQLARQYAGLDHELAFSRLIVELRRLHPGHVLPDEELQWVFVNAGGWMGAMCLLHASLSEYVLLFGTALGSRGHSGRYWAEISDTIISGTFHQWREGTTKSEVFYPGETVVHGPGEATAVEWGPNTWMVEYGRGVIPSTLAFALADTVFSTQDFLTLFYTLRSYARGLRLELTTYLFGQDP
Sequence of Sigma intracellular receptor 2 (Homo sapiens) (Q5BJF2 whole entry): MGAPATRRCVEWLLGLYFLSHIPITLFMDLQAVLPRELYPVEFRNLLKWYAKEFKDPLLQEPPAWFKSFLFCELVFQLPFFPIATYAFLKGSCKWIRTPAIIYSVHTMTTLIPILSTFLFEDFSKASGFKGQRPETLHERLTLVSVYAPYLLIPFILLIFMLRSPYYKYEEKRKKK
Sequence of Translocator protein (Homo sapiens) (P30536 whole entry): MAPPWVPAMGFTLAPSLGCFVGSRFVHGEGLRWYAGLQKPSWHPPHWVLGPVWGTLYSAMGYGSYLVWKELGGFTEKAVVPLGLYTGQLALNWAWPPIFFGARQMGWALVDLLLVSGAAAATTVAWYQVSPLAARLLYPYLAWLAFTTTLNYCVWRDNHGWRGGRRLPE
Sequence of 5-hydroxytryptamine receptor 2A (Homo sapiens) (P28223 whole entry): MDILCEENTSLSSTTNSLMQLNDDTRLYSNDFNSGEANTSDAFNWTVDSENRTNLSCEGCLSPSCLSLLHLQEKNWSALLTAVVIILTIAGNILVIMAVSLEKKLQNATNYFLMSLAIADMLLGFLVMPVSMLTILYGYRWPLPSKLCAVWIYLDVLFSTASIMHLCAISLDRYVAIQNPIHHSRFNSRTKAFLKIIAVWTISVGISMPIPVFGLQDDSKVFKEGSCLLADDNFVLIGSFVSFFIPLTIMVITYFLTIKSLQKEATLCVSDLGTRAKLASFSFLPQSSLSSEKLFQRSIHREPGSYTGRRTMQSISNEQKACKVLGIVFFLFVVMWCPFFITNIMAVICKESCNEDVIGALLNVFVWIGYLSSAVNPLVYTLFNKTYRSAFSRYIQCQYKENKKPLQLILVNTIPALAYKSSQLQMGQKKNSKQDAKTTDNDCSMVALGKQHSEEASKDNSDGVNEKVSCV
Sequence of Beta-2 adrenergic receptor (Homo sapiens) (P07550 whole entry, looked up): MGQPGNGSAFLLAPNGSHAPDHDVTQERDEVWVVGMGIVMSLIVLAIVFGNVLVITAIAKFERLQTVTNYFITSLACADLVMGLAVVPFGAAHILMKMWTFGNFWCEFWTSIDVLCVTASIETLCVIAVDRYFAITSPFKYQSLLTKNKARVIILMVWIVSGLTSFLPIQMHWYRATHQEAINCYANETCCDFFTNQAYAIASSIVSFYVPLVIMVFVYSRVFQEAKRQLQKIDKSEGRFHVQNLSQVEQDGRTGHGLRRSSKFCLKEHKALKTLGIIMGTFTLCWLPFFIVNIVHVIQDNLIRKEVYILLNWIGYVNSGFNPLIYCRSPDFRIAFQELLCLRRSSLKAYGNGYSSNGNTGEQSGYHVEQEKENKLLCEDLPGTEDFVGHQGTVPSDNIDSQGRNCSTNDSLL
Sequence of Sodium-dependent dopamine transporter (Homo sapiens) (Q01959 whole entry): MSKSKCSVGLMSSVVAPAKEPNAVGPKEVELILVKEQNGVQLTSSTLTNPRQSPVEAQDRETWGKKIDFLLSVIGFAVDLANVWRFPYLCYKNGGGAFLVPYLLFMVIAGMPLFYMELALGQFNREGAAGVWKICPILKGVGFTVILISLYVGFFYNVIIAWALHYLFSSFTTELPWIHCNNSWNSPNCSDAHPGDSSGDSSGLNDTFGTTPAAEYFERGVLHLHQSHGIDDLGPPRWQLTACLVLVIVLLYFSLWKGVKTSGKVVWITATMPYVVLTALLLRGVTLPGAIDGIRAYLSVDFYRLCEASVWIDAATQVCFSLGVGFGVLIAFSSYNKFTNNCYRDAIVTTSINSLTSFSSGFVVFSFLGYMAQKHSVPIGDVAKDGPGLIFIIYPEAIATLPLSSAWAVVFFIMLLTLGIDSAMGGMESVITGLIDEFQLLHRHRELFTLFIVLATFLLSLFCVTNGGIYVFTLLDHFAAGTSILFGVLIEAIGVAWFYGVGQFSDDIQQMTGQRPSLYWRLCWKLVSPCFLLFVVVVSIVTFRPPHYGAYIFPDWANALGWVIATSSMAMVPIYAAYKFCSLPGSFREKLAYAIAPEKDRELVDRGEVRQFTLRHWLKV

Turning to `Cc1c(C2=CCN(C(=O)N(C)C(C)C)CC2)nnn1-c1cccnc1F`, the inhibition in experiment [1] is 85.9%; in [2], 64.4%; in [3], -1.56%; in [4], 8.19%; in experiment [5] it was 14.8%; in experiment [6] it was 6.62%. Further, the inhibition was 1.27% in experiment [7]; -0.1% in experiment [8]; -7.92% in [9]; 9.6% in experiment [10]; 36.2% in experiment [11]; 2.87% in experiment [12]. The inhibition in experiment [13] is -3.59%; in experiment [14], -6.84%; in experiment [15] it was 20.2%; in experiment [16], 11.9%; in [17], 48.4%.

Regarding `Cc1nnn(-c2ccc(-c3ccc(C4(C(=O)O)CC4)cc3)cc2)c1NC(=O)O[C@H](C)c1ccccc1`, the inhibition in experiment [1] is 2.49%; in experiment [18], -4.64%; in experiment [2], -0.49%; in experiment [3], 3.3%; in [5], 24.9%; in experiment [19], 43.6%. The inhibition in experiment [6] was -0.33%; in [7], 37.4%; in [20], 35%; in [10], -4.07%; in experiment [11], -8.07%; in experiment [12], 7.62%. Also, the inhibition in experiment [13] is -3.65%; in experiment [14], 6.66%; in experiment [15], 1.32%; in [16] it was 25.4%; in [17], 20.9%.

As to `COc1ccnc(N2CCC3(CCCN(Cc4c[nH]c5ccccc45)C3=O)CC2)n1`, the inhibition in [1] was 7.53%; in [18] it was -4.13%; in [2], 34.7%; in experiment [3], 75.8%; in experiment [5], -5.97%; in experiment [19] it was 20.4%. The inhibition in [6] was 23.6%; in experiment [7] it was 19.4%; in [20], 44.7%; in experiment [21], -2.35%; in [8], 0.97%; in experiment [9], 8.03%. Further, the inhibition is -2.57% in experiment [10]; -4.41% in experiment [11]; 0.43% in experiment [12]; 0.7% in experiment [13]; 11.9% in experiment [14]; -3.29% in [15]. Moreover, the inhibition in experiment [16] is 7%; in [17] it was 16%.

As for `Cc1csc(NC(=O)c2cc(F)cc(Oc3cncnc3)c2)n1`, the inhibition in experiment [1] was 1.92%; in experiment [18] it was -5.62%; in experiment [2] it was 41.8%; in experiment [3] it was 37.4%; in experiment [19], 46%; in experiment [6], 26.7%. Further, the inhibition in experiment [7] is 7.85%; in experiment [20], 56.1%; in experiment [21], -7.43%; in experiment [8], 0.59%; in experiment [9], 15.3%; in experiment [10] it was 0.79%. For the same molecule, the inhibition in experiment [11] was -8.28%; in experiment [12] it was -0.94%; in experiment [13], 2.1%; in [14], 8.79%; in [15], -3.74%; in experiment [16], 21%. In addition, in experiment [17], the inhibition is 37.2%.

Consider `COC1CCN(c2cccc(-c3cc(NC(C)=O)nc(-n4nc(C)cc4C)n3)n2)CC1`, for which the inhibition in [1] is 1.6%; in [18] it was -3.87%; in [2], 36.3%; in experiment [3], 70.3%; in [4], 21.1%; in experiment [5], 22.6%. In addition, the inhibition in experiment [19] was 3.58%; in [6], 30.3%; in [7] it was 40.8%; in [20], 49.2%; in experiment [8] it was 3.48%; in experiment [9], 0.28%. Also, the inhibition was 5.32% in experiment [10]; 27.3% in experiment [11]; 1.9% in experiment [12]; 1.55% in experiment [13]; 2.28% in experiment [14]; 15.2% in experiment [15]. In addition, the figures for the inhibition in [16] and in experiment [17] were 12.8% and 80.2%, respectively.

One may read the inhibition as the drop in the measured response relative to a control, in per cent.

Source of the values: ChEMBL document CHEMBL5442219.
